The target in one experiment is T1, ZO1 PDZ2 (Homo sapiens, UniProt Q07157).
T1 construct: ZO-1-2 (PDZ2; residues 184–264); His tag (N); made in house; host or cells: E. coli BL21 Star (DE3)
T1 sequence (Q07157 184-264): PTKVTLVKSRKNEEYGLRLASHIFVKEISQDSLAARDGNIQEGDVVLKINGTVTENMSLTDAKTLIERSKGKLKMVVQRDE
The experiment is described as follows: Microscale thermophoresis, E PBM peptide vs ZO1 PDZ2. It is filed as binding. Background: Microscale thermophoresis detects binding through changes in fluorescence in a small temperature gradient.

In experiment [1] the target is T2, MPP5 PDZ (Homo sapiens, UniProt Q8N3R9).
T2 construct: MPP5 (residues 238–336); GST (N, cleaved yes); made in house; host or cells: E. coli BL21 Star (DE3)
T2 sequence (Q8N3R9 238-336): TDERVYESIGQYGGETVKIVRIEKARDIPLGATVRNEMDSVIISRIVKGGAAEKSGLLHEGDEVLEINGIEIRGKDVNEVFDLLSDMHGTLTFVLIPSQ
Briefly: Microscale thermophoresis, E PBM peptide vs MPP5 PDZ. It counts as binding.

Experiment [2] deals with T3, LNX2 PDZ2 (Homo sapiens, UniProt Q8N448).
T3 construct: LNX2-2 (PDZ2; residues 334–426); His tag (N, cleaved yes); made in house; host or cells: E. coli BL21 Star (DE3)
T3 sequence (Q8N448 334-426): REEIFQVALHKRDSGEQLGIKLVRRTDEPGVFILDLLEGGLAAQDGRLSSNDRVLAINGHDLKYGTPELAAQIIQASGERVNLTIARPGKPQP
The experiment is described as follows: Microscale thermophoresis, E PBM peptide vs LNX2 PDZ2. It counts as binding.

Experiment [3] has as its target T4, PARD3 PDZ3 (Homo sapiens, UniProt Q8TEW0).
T4 construct: PARDD3-3 (PDZ3; residues 582–685); His tag (N, cleaved yes); made in house; host or cells: E. coli BL21 Star (DE3)
The experiment is described as follows: Microscale thermophoresis, E PBM peptide vs PARD3 PDZ3. It counts as binding. Particulars: MST.

Experiment [4] addresses T5, MLLT4 PDZ (Homo sapiens, UniProt P55196).
T5 construct: MLLT4; P55196; 1002-1095; His-MBP (N, cleaved yes); made in house; host or cells: E. coli BL21 Star (DE3)
T5 sequence (P55196 1002-1095): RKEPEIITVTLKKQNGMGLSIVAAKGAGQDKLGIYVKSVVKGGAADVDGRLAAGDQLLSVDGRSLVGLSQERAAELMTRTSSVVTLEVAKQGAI
The experiment is described as follows: Microscale thermophoresis, E PBM peptide vs MLLT4 PDZ. It is filed as binding. As to conditions: MST.

Experiment [5] has as its target T6, PARD3 PDZ3 (human, UniProt Q8TEW0 582-685).
T6 construct: third PDZ domain of human PARD3, residues 582-685, numbering of the full-length human protein; […]; Labelled on amines with RED-NHS dye for MST; also called PARDD3-3; not shown: His tag, N-terminal, cleaved
The experiment is described as follows: MST; […]; PBS tween 20 0.05%; room temperature; […]; duplicate. Particulars: both partners purified.

The target of experiment [6] is T7, MLLT4 PDZ (human, UniProt P55196 1002-1095).
T7 construct: PDZ domain of human MLLT4 (Afadin); the residues named in the structure (1014-1022, 1071) fit 1002-1095; also called Afadin PDZ; not shown: His tag, N-terminal, cleaved; MBP, N-terminal, cleaved
T7 sequence (looked up): T5 sequence (P55196 1002-1095)
The description is as above. As to conditions: both partners purified.

The target of the next experiment is T8, ZO-1 PDZ2 (human, UniProt Q07157 184-264).
T8 construct: second PDZ domain of human ZO-1 (TJP1), residues 184-264, numbering of the full-length human protein; […]; Labelled on amines with RED-NHS dye for MST; also called TJP1 PDZ2; ZO-1-2
T8 sequence (looked up): T1 sequence (Q07157 184-264)
The description is as above. As to conditions: both partners purified.

For experiment [7], the target named is T9, MPP5 PDZ (human, UniProt Q8N3R9 238-336).
T9 construct: PDZ domain of human MPP5 (PALS1), residues 238-336, numbering of the full-length human protein; […]; Labelled on amines with RED-NHS dye for MST; also called PALS1 PDZ; not shown: GST, N-terminal, cleaved
T9 sequence (looked up): T2 sequence (Q8N3R9 238-336)
Described as above. As to conditions: both partners purified.

Experiment [8] deals with T10, LNX2 PDZ2 (human, UniProt Q8N448 334-426).
T10 construct: second PDZ domain of human LNX2, residues 334-426, numbering of the full-length human protein; […]; Labelled on amines with RED-NHS dye for MST; also called LNX2-2; not shown: His tag, N-terminal, cleaved
T10 sequence (looked up): T3 sequence (Q8N448 334-426)
Described as above. Particulars: both partners purified.

[9] abbreviates: Monolith NT.115, PDZ labeled RED-NHS, acetylated 12-mer peptide serially diluted, PBS tween 20 0.05%, room temperature, 80% LED, 20% MST power, MST time 30 s, averaged, ± standard deviation, two independent experiments.
The mark [10] stands for this setting: either no interaction, or affinity outside the tested concentration range, read-out: Kd, outside the tested concentration range.

Entries after “also recorded” stand apart in the source; their conditions may differ. Like-named read-outs stand apart in the source and are kept apart here. No end group written: not given here.

T4 sequence (Q8TEW0 582-685): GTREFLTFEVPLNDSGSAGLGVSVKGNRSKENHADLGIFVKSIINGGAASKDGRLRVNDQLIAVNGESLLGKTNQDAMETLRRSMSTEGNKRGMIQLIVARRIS
T6 sequence (Q8TEW0 582-685): as above

As to Ac-NLNSSRVLDLLV [SARS-CoV-2 P71L], the “Effect of P71L on affinity vs WT” value is given as “considerably reduces” on ZO1 PDZ2 and “does not significantly impact the affinity” at MPP5 PDZ [1]. Also, on LNX2 PDZ2 [2], the “Change of Kd compared with SARS-CoV-2 WT” value is reported as “almost six times lower”. Moreover, the Kd result at PARD3 PDZ3 [3] (setting [9]) was “not detectable in the tested concentration range; also recorded: No interaction detected”; at PARD3 PDZ3 [3] (setting [10]) it was greater than 1000 µM; on MLLT4 PDZ [4] (setting [9]) it was “not detectable in the tested concentration range; also recorded: No interaction detected”; at MLLT4 PDZ [4] (setting [10]), greater than 1000 µM.

B1: C-terminal SARS-CoV-2-E PBM P71L peptide of the beta variant (peptide)
peptide: NLNSSRVLDLLV
notes: also called P71L PBM peptide; SARS-CoV-2 P71L
Take B1: the Kd in the experiment with PARD3 PDZ3 [5] is greater than 1000 µM; with MLLT4 PDZ [6], greater than 1000 µM; with ZO-1 PDZ2, 133 µM; with MPP5 PDZ [7], 22 µM; with LNX2 PDZ2 [8] it was 47 µM.

The values above are taken from article PMC8909127 (Frontiers in Microbiology, 2022).
